Data taken from ChEMBL document CHEMBL1201862, “PubChem BioAssay data set” (2004).
Active and inactive are the calls of the source.

Key:
Type in all cases: functional
[1] = biological target: Mitogen-activated protein kinase kinase kinase kinase 4 (Homo sapiens, UniProt O95819)
[2] = biological target: Serine/threonine-protein kinase Nek2 (Homo sapiens, UniProt P51955)
[3] = biological target: Calcium/calmodulin-dependent protein kinase type 1 (Homo sapiens, UniProt Q14012)
[4] = biological target: Mitogen-activated protein kinase 9 (Homo sapiens, UniProt P45984);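 note: value from a kinome panel profiling assay, MAPK9 panel entry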
[5] = biological target: Serine/threonine-protein kinase PAK 4 (Homo sapiens, UniProt O96013);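 note: value obtained within a kinome profiling panel in which PAK4 was one of the panel members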
[6] = biological target: T1, Testis-specific serine/threonine-protein kinase 2 (Homo sapiens, UniProt Q96PF2);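 note: part of the Navigating the Kinome panel, target entry STK22B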
T1 sequence (Q96PF2 whole entry): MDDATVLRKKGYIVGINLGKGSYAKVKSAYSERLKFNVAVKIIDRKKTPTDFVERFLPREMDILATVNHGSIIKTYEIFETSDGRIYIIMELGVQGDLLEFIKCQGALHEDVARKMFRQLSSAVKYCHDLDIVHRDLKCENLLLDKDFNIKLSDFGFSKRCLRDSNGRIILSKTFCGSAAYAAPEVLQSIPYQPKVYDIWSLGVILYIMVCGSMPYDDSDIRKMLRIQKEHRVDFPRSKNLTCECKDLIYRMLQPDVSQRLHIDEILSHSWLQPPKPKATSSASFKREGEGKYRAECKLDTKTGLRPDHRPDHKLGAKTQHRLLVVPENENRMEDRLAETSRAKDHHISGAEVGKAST

[7] = biological target: Tyrosine-protein kinase Fyn (Homo sapiens, UniProt P06241)
[8] = biological target: Homeodomain-interacting protein kinase 2 (Homo sapiens, UniProt Q9H2X6);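 note: measured within a kinome-wide kinase profiling panel, HIPK2 being one panel member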
[9] = biological target: Ribosomal protein S6 kinase alpha-3 (Homo sapiens, UniProt P51812);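 note: measured within a kinome-wide profiling panel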
[10] = biological target: Tyrosine-protein kinase Blk (Homo sapiens, UniProt P51451);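 note: obtained as one member of a kinome-wide kinase assay panel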
[11] = biological target: Serine/threonine-protein kinase PAK 1 (Homo sapiens, UniProt Q13153)
[12] = biological target: Proto-oncogene tyrosine-protein kinase ROS (Homo sapiens, UniProt P08922);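 note: ROS1 tested as one member of a kinome-wide kinase panel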
[13] = biological target: T2, Tyrosine-protein kinase JAK3 (Homo sapiens, UniProt P52333)
T2 sequence (P52333 whole entry): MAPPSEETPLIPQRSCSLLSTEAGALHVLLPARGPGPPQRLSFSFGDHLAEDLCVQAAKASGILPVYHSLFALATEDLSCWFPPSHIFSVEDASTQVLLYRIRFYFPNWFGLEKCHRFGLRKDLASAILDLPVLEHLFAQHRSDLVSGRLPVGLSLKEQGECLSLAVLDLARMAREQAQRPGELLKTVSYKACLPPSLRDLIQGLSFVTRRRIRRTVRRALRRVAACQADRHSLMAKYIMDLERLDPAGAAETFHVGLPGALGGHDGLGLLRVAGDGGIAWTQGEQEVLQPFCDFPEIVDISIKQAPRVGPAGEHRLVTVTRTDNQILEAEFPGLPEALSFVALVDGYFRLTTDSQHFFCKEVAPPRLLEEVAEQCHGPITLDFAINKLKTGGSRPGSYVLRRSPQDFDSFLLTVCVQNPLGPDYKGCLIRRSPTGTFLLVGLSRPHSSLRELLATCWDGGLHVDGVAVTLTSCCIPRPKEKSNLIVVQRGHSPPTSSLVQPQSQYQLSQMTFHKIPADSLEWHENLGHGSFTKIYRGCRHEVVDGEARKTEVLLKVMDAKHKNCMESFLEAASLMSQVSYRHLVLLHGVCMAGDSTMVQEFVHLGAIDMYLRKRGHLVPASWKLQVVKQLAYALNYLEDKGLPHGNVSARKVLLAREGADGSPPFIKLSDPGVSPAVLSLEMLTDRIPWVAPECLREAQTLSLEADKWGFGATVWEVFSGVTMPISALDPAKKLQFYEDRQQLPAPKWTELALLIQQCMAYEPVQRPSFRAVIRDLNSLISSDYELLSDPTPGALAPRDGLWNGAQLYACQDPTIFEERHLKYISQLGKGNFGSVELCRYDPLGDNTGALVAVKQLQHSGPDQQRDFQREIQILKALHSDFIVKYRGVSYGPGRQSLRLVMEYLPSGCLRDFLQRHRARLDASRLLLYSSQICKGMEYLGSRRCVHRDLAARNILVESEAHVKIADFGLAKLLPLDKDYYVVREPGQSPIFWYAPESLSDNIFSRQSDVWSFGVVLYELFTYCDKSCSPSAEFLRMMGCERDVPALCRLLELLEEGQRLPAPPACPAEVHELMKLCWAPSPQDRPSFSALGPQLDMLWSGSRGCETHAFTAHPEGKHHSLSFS

[14] = biological target: Tyrosine-protein kinase Srms (Homo sapiens, UniProt Q9H3Y6);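 note: SRMS measured as one member of a kinome-wide kinase profiling panel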
[15] = biological target: Serine/threonine-protein kinase TBK1 (Homo sapiens, UniProt Q9UHD2); test: Navigating the Kinome. Panel member name: TBK1
[16] = biological target: Cyclin-dependent kinase 9 (Homo sapiens, UniProt P50750);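 note: value from the CDK9 entry of a kinome-spanning kinase panel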
[17] = biological target: Macrophage-stimulating protein receptor (Homo sapiens, UniProt Q04912); test: Navigating the Kinome. Panel member name: MST1R
[18] = biological target: Dual specificity protein kinase CLK4 (Homo sapiens, UniProt Q9HAZ1)
[19] = biological target: Dual specificity mitogen-activated protein kinase kinase 1 (Homo sapiens, UniProt Q02750); test: Navigating the Kinome. Panel member name: MAP2K1
[20] = biological target: Protein kinase C theta type (Homo sapiens, UniProt Q04759); test: Navigating the Kinome. Panel member name: PRKCQ
[21] = biological target: Platelet-derived growth factor receptor alpha (Homo sapiens, UniProt P16234); test: Navigating the Kinome. Panel member name: PDGFRA
[22] = biological target: Aurora kinase A (Homo sapiens, UniProt O14965);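 note: value from the Navigating the Kinome kinase panel profiling, panel entry STK6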
[23] = biological target: Activin receptor type-1 (Homo sapiens, UniProt Q04771); test: Navigating the Kinome. Panel member name: ACVR1
[24] = biological target: Dual specificity mitogen-activated protein kinase kinase 2 (Homo sapiens, UniProt P36507); test: Navigating the Kinome. Panel member name: MAP2K2
[25] = biological target: Proto-oncogene tyrosine-protein kinase receptor Ret (Homo sapiens, UniProt P07949);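 note: measured within a kinome-wide profiling panel, RET as the panel member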
[26] = biological target: Dual specificity tyrosine-phosphorylation-regulated kinase 1B (Homo sapiens, UniProt Q9Y463); test: Navigating the Kinome. Panel member name: DYRK1B

Sequence of Platelet-derived growth factor receptor alpha (P16234 whole entry): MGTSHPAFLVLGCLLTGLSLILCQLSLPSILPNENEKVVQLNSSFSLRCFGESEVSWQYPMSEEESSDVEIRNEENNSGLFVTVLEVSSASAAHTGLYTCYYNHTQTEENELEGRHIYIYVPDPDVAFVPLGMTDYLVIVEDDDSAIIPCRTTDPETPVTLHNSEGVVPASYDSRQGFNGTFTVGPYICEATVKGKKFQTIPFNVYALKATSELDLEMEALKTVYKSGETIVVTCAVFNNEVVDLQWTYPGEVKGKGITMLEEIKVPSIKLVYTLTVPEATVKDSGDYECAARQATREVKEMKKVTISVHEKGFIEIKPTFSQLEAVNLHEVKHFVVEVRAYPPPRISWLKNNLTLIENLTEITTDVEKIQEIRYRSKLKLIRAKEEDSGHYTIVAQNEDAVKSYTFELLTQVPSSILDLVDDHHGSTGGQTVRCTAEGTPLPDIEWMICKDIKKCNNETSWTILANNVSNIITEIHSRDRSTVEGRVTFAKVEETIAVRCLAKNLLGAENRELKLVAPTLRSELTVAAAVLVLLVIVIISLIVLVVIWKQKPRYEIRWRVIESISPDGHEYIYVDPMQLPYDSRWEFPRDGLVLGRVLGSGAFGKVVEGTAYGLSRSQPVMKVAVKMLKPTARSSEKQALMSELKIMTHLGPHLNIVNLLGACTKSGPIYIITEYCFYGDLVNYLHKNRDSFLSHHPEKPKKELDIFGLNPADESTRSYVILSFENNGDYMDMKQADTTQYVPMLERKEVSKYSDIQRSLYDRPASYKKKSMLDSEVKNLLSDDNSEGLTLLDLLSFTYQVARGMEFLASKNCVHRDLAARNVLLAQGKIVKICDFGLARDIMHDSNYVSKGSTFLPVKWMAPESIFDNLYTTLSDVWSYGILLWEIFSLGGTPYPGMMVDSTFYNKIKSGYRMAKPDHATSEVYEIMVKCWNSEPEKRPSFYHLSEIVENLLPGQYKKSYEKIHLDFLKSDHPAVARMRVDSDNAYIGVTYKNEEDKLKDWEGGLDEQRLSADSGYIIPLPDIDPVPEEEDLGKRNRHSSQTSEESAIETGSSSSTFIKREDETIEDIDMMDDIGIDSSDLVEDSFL
Sequence of Mitogen-activated protein kinase kinase kinase kinase 4 (O95819 whole entry): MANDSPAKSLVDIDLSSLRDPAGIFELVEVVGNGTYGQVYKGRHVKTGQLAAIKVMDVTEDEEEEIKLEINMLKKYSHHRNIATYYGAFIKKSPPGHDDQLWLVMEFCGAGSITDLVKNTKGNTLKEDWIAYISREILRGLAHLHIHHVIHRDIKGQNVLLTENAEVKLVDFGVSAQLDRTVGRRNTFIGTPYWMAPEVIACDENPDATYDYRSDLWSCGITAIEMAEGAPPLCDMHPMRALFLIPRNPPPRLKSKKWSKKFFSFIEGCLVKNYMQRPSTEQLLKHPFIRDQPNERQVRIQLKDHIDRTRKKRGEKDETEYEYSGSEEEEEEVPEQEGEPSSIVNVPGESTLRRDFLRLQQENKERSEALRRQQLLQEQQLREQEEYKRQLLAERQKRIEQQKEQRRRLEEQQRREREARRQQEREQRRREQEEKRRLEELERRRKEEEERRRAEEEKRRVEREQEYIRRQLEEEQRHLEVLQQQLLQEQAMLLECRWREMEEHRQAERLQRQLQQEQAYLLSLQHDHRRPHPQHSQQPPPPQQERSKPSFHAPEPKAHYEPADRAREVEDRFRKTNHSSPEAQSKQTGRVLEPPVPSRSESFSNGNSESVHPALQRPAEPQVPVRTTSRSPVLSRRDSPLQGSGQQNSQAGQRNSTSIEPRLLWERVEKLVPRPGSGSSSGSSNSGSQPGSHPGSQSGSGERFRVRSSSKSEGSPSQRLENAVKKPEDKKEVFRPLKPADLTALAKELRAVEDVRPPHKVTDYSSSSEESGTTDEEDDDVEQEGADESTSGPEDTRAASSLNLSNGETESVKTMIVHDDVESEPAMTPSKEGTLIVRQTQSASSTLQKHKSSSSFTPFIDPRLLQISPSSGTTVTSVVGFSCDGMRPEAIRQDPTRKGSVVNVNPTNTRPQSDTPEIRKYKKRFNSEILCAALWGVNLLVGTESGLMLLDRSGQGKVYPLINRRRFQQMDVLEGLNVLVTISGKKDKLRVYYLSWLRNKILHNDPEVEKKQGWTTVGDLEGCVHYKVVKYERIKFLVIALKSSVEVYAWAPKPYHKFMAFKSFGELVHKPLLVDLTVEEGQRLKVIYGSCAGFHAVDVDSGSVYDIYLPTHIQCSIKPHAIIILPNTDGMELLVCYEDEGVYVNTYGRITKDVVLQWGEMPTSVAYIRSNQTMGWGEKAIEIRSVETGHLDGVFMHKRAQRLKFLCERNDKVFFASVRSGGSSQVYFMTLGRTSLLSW
Sequence of Ribosomal protein S6 kinase alpha-3 (P51812 whole entry): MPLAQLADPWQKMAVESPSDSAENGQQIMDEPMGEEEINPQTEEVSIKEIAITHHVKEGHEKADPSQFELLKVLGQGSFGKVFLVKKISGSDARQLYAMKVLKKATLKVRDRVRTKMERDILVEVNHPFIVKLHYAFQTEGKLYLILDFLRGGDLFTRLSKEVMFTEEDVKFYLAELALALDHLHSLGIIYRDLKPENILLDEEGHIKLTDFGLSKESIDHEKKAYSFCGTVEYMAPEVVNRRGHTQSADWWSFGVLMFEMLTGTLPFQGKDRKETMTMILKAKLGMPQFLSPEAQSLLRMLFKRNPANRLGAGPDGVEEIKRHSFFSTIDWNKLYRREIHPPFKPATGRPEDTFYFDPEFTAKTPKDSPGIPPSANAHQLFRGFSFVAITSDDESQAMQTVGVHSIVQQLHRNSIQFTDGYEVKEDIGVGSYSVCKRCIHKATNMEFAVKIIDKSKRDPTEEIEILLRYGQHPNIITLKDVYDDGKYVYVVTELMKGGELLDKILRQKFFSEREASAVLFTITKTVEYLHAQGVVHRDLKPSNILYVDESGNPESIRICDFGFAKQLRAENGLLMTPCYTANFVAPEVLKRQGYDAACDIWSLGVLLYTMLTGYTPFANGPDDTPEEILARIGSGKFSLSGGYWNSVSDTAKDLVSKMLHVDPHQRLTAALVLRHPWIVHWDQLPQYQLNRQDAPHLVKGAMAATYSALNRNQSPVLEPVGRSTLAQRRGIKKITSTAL
Sequence of Serine/threonine-protein kinase Nek2 (P51955 whole entry): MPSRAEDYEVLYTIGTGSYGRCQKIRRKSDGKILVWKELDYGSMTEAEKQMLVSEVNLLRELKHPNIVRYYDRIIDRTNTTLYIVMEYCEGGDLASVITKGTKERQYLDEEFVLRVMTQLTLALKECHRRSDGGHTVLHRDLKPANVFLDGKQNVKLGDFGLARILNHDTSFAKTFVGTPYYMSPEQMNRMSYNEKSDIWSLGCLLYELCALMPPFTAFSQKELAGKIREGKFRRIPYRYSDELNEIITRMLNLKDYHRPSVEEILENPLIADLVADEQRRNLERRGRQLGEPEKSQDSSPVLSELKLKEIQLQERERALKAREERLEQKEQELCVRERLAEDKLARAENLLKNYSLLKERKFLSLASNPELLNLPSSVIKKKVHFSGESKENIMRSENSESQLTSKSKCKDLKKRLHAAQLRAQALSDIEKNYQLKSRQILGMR
Sequence of Dual specificity protein kinase CLK4 (Q9HAZ1 whole entry): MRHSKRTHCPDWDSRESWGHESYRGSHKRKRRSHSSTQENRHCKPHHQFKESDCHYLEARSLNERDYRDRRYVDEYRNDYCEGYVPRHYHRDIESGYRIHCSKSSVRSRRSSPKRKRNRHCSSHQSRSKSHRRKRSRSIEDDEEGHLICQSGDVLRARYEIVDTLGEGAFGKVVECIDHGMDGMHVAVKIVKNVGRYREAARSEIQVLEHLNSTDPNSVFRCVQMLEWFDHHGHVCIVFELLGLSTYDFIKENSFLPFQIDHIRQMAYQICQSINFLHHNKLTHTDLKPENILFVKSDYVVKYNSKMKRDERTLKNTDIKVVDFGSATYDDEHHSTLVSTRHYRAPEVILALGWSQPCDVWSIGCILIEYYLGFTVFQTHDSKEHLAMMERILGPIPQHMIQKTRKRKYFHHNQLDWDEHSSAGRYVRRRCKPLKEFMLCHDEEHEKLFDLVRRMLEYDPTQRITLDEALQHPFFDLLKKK
Sequence of Serine/threonine-protein kinase PAK 4 (O96013 whole entry): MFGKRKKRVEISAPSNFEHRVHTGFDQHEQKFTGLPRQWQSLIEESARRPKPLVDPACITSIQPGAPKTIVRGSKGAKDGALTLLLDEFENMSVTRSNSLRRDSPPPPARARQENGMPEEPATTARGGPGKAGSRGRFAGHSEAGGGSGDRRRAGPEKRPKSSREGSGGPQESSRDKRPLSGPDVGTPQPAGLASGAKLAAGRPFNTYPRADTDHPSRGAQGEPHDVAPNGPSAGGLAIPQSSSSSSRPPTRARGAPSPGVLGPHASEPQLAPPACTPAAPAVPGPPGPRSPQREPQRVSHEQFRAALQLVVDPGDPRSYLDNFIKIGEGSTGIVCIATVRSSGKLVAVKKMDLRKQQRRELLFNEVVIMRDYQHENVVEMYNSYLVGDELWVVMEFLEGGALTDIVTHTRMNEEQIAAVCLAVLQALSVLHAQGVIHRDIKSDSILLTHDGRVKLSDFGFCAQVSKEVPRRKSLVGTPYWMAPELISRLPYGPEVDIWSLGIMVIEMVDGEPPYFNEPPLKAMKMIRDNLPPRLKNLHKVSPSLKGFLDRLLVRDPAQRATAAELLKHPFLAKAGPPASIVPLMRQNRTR
Sequence of Cyclin-dependent kinase 9 (P50750 whole entry): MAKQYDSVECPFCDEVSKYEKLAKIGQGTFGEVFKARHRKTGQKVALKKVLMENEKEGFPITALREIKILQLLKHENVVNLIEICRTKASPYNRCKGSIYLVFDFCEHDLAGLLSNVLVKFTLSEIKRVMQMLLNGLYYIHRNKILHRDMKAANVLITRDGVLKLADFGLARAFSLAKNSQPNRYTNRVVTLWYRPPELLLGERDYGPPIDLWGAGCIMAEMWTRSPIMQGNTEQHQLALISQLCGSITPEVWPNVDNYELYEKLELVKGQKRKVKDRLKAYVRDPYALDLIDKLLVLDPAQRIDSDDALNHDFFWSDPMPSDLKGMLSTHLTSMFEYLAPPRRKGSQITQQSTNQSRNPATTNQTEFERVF

Ki [1]	Ki [2]	Ki [4]	Ki [5]	Ki [7]	Ki [9]	Ki [13]	Ki [15]	Ki [16]	Ki [17]	Ki [18]	Ki [19]	Ki [21]	SMILES	Ki [3]	Ki [6]	Ki [8]	Ki [10]	Ki [11]	Ki [12]	Ki [14]	also measured
0.0631 µM (active)	> 10 µM (inactive)	0.126 µM (active)	0.316 µM (active)	> 0.794 µM (inactive)	0.00501 µM (active)	0.398 µM (active)	–	–	–	–	–	–	NC1CCC(Nc2nccc(-c3c[nH]c4ncccc34)n2)CC1 (centres undefined)	> 1.26 µM (inactive)	0.794 µM (active)	0.0158 µM (active)	> 1.58 µM (inactive)	7.94 µM (active)	> 2 µM (inactive)	> 1.58 µM (inactive)	–
20 µM (active)	39.8 µM (active)	79.4 µM (active)	–	–	–	100 µM (active)	50.1 µM (active)	5.01 µM (active)	39.8 µM (active)	0.0316 µM (active)	10 µM (active)	39.8 µM (active)	OCc1cc(-c2ccc3[nH]ncc3c2)on1	–	–	–	–	–	–	–	Ki [20]: 12.6 µM (active); Ki [22]: 15.8 µM (active); Ki [23]: 20 µM (active); Ki [24]: 15.8 µM (active); Ki [25]: 50.1 µM (active); Ki [26]: 0.1 µM (active)
39.8 µM (active)	–	–	100 µM (active)	100 µM (active)	39.8 µM (active)	–	79.4 µM (active)	10 µM (active)	39.8 µM (active)	0.0794 µM (active)	20 µM (active)	63.1 µM (active)	CC(C)(O)c1cn(-c2ccc3[nH]ncc3c2)nn1	–	–	–	–	–	–	–	Ki [20]: 39.8 µM (active); Ki [22]: 25.1 µM (active); Ki [23]: 79.4 µM (active); Ki [24]: 25.1 µM (active); Ki [25]: 25.1 µM (active); Ki [26]: 2 µM (active)

SMILES	Ki [1]	Ki [2]	Ki [4]	Ki [5]	Ki [7]	Ki [9]	Ki [13]	Ki [15]	Ki [16]	Ki [17]	Ki [18]	Ki [19]	Ki [21]	Ki [3]	Ki [6]	Ki [8]	Ki [10]	Ki [11]	Ki [12]	Ki [14]	also measured
COC(C(=O)N1Cc2[nH]nc(NC(=O)c3ccc(N4CCN(C)CC4)cc3)c2C1)c1ccccc1 (centres undefined)	–	–	–	–	–	–	–	–	–	–	–	–	> 2 µM (inactive)	> 2.51 µM (inactive)	> 1.58 µM (inactive)	> 3.16 µM (inactive)	0.0398 µM (active)	> 10 µM (inactive)	0.00794 µM (active)	0.0501 µM (active)	–
